# Reference: ChEMBL document CHEMBL6121036, “Evaluation of Cereblon-Directing Warheads for the Development of Orally Bioavailable PROTACs” (J Med Chem, 2025)
# pIC50: −log10 of the molar value. Activity calls are given as the source filed them. The calls are words filed in the database; no cut-off is given here.
# Legend:
# [1] = target: T1, Protein cereblon/Bromodomain-containing protein 4 (Homo sapiens, UniProt O60885+Q96SW2); assay: PROTAC activity at CRBN/Hibit-tagged BRD4 (unknown origin) expressed in HEK293 cells co-expressing LgBiT assessed as degradation of BRD4 incubated for 24 hrs by […] glo-max assay relative to control; format: cell-based
# [2] = Effect on MCL1 level in human MV4-11 cells assessed as fold change at 100 nM measured after 4 hrs; format: functional
# [3] = Downregulation of BRD3 protein level in human MV4-11 cells at 100 nM incubated for 4 hrs relative to control; format: functional
# [4] = target: T1, Protein cereblon/Bromodomain-containing protein 4; assay: PROTAC activity at CRBN/Hibit-tagged CRISPR BRD4 (unknown origin) expressed in HEK293 cells co-expressing LgBiT assessed as degradation of BRD4 measured after 18 to 24 hrs by […] glo-max assay; format: cell-based; settings: time 18-24 hrs
# [5] = Effect on MYC level in human MV4-11 cells assessed as fold change at 100 nM measured after 4 hrs; format: functional
# [6] = target: T1, Protein cereblon/Bromodomain-containing protein 4; assay: PROTAC activity at CRBN/Hibit-tagged CRISPR BRD4 (unknown origin) expressed in HEK293 cells co-expressing LgBiT assessed as degradation of BRD4 by […] glo-max assay relative to control; format: cell-based
# [7] = Effect on FGL2 level in human MV4-11 cells assessed as fold change at 100 nM measured after 4 hrs; format: functional
# [8] = Downregulation of BRD4 protein level in human MV4-11 cells at 100 nM incubated for 4 hrs relative to control; format: functional
# [9] = Effect on BRD2 level in human MV4-11 cells assessed as fold change at 100 nM measured after 4 hrs; format: functional
# [10] = Effect on ZBTB21 level in human MV4-11 cells assessed as fold change at 100 nM measured after 4 hrs; format: functional
# [11] = Effect on PLK1 level in human MV4-11 cells assessed as fold change at 100 nM measured after 4 hrs; format: functional
# MV4-11 [12] = assay: Upregulation of ZBTB21 level in human MV4-11 cells at 100 nM incubated for 30 mins; format: functional, cell-based
# [13] = target: T2, Protein cereblon/Bromodomain-containing protein 2 (Homo sapiens) (UniProt P25440+Q96SW2); assay: PROTAC activity at CRBN/Hibit-tagged CRISPR BRD2 (unknown origin) expressed in HEK293 cells coexpressing LgBiT assessed as degradation of BRD2 measured after 10 to 14 hrs by […] glo-max assay; format: cell-based; settings: time 10-14 hrs
# [14] = target: T2, Protein cereblon/Bromodomain-containing protein 2 (Homo sapiens); assay: PROTAC activity at CRBN/Hibit-tagged CRISPR BRD2 (unknown origin) expressed in HEK293 cells coexpressing LgBiT assessed as degradation of BRD2 by […] glo-max assay; format: cell-based
# [15] = Effect on BRD3 level in human MV4-11 cells assessed as fold change at 100 nM measured after 4 hrs; format: functional
# [16] = Kinetic aqueous solubility of the compound at pH 7.4; format: physicochemical; settings: read-out: Kinetic_solubility
# [17] = Permeability in MDCK-II cells incubated for 1 hr by UPLC/MS/UV analysis; format: ADME, cell-based, Canis lupus familiaris; settings: dog, read-out: permeability
# [18] = Effect on CDC42EP3 level in human MV4-11 cells assessed as fold change at 100 nM measured after 4 hrs; format: functional
# [19] = target: T3, Protein cereblon/Bromodomain-containing protein 3 (Homo sapiens) (UniProt Q15059+Q96SW2); assay: PROTAC activity at CRBN/Hibit-tagged CRISPR BRD3 (unknown origin) expressed in HEK293 cells co-expressing LgBiT assessed as degradation of BRD3 by […] glo-max assay relative to control; format: cell-based
# [20] = Effect on NSA2 level in human MV4-11 cells assessed as fold change at 100 nM measured after 4 hrs; format: functional
# [21] = Effect on TP53 level in human MV4-11 cells assessed as fold change at 100 nM measured after 4 hrs; format: functional
# [22] = Effect on CCND3 level in human MV4-11 cells assessed as fold change at 100 nM measured after 4 hrs; format: functional
# [23] = target: T3, Protein cereblon/Bromodomain-containing protein 3 (Homo sapiens); assay: PROTAC activity at CRBN/Hibit-tagged CRISPR BRD3 (unknown origin) expressed in HEK293 cells co-expressing LgBiT assessed as degradation of BRD3 by […] glo-max assay; format: cell-based
# [24] = target: Protein cereblon (Homo sapiens) (UniProt Q96SW2); assay: Binding affinity to CRBN (unknown origin)
# [25] = Effect on CCNF level in human MV4-11 cells assessed as fold change at 100 nM measured after 4 hrs; format: functional
# [26] = Effect on RNF166 level in human MV4-11 cells assessed as fold change at 100 nM measured after 4 hrs; format: functional
# [27] = target: T1, Protein cereblon/Bromodomain-containing protein 4; assay: PROTAC activity at CRBN/Hibit-tagged BRD4 (unknown origin) expressed in HEK293 cells co-expressing LgBiT assessed as degradation rate incubated for 24 hrs by […] glo-max assay; format: cell-based
# MV4-11 [28] = assay: Upregulation of MIER1 level in human MV4-11 cells at 100 nM incubated for 30 mins; format: functional, cell-based
# [29] = Effect on ZFP36L2 level in human MV4-11 cells assessed as fold change at 100 nM measured after 4 hrs; format: functional
# [30] = AUC last in female CD1 mouse at 10 mg/kg, po measured upto 24 hrs by LC-MS/MS analysis; format: ADME, organism-based; settings: in vivo
# [31] = Cmax in female CD1 mouse at 10 mg/kg, po measured upto 24 hrs by LC-MS/MS analysis; format: ADME, organism-based; settings: in vivo
# [32] = Effect on FYTTD1 level in human MV4-11 cells assessed as fold change at 100 nM measured after 4 hrs; format: functional
# [33] = target: T4, Protein cereblon/Bromodomain-containing protein 4/DNA damage-binding protein 1 (Homo sapiens) (UniProt O60885+Q96SW2+Q16531); assay: Binding affinity to his-tagged CRBN/DDB1/GST-tagged BRD4 (49 to 170 residues)(unknown origin) assessed as ternary complex formation (AUC) incubated for 1 hr by luminescence based Alphascreen assay; format: protein assay
# [34] = target: T1, Protein cereblon/Bromodomain-containing protein 4; assay: PROTAC activity at CRBN/Hibit-tagged CRISPR BRD4 (unknown origin) expressed in HEK293 cells co-expressing LgBiT assessed as degradation of BRD4 by […] glo-max assay; format: cell-based
# HD-MB03 = assay: Cytotoxicity against human HD-MB03 cells assessed as reduction in cell viability incubated for 72 hrs by cell-titer glo assay; format: functional, cell-based; settings: HD-MB03, 72 h
# [35] = Downregulation of BRD2 protein level in human MV4-11 cells at 100 nM incubated for 4 hrs relative to control; format: functional
# [36] = Effect on AURKA level in human MV4-11 cells assessed as fold change at 100 nM measured after 4 hrs; format: functional
# HEK293 = assay: Cytotoxicity against HEK293 cells expressing LgBiT fused HiBiT-BRD2 measured after 24 hrs by cell titer-glo assay; format: toxicity, cell-based; settings: human, hek293, 24 h
# MV4-11 [37] = assay: Cytotoxicity against human MV4-11 cells assessed as reduction in cell viability incubated for 72 hrs by cell-titer glo assay; format: functional, cell-based; settings: MV4-11, 72 h
# [38] = Effect on NOP53 level in human MV4-11 cells assessed as fold change at 100 nM measured after 4 hrs; format: functional
# [39] = Stability in mouse plasma assessed as half life by UPLC-MS/MS analysis; format: ADME, cell-free
# [40] = target: T2, Protein cereblon/Bromodomain-containing protein 2 (Homo sapiens); assay: PROTAC activity at CRBN/Hibit-tagged CRISPR BRD2 (unknown origin) expressed in HEK293 cells coexpressing LgBiT assessed as degradation of BRD2 by […] glo-max assay relative to control; format: cell-based
# [41] = target: T3, Protein cereblon/Bromodomain-containing protein 3 (Homo sapiens); assay: PROTAC activity at CRBN/Hibit-tagged CRISPR BRD3 (unknown origin) expressed in HEK293 cells co-expressing LgBiT assessed as degradation of BRD3 measured after 13 to 16 hrs by […] glo-max assay; format: cell-based; settings: time 13-16 hrs
# [42] = Effect on BRD4 level in human MV4-11 cells assessed as fold change at 100 nM measured after 4 hrs; format: functional
# [43] = target: T1, Protein cereblon/Bromodomain-containing protein 4; assay: PROTAC activity at CRBN/Hibit-tagged BRD4 (unknown origin) expressed in HEK293 cells co-expressing LgBiT assessed as degradation of BRD4 incubated for 24 hrs by […] glo-max assay; format: cell-based
# [44] = Effect on PLAU level in human MV4-11 cells assessed as fold change at 100 nM measured after 4 hrs; format: functional
# [45] = Metabolic stability in mouse liver microsomes assessed as half life; format: ADME, Microsome; settings: liver microsomes
# [46] = Half life in mouse at 50 mg/kg, ip; format: ADME, organism-based; settings: in vivo
# [47] = target: T4, Protein cereblon/Bromodomain-containing protein 4/DNA damage-binding protein 1 (Homo sapiens); assay: Binding affinity to his-tagged CRBN/DDB1/GST-tagged BRD4 (49 to 170 residues)(unknown origin) assessed as ternary complex formation by measuring AUC incubated for 1 hr by luminescence based Alphascreen assay; format: protein assay
smiles,measurement,setting,value
Cc1sc2c(c1C)C(c1ccc(Cl)cc1)=N[C@@H](CC(=O)N1CCC(CN3CCN(c4ccc5c(c4)oc(=O)n5C4CCC(=O)NC4=O)CC3)CC1)c1nnc(C)n1-2 (stereo partly drawn),Emax,[1],94%
same,fold change (FC),[2],-1.14
same,Activity,[3],90%
same,Activity,[4],Active
same,fold change (FC),[5],-2.38
same,Activity,[6],> 90%
same,fold change (FC),[7],-0.81
same,Activity,[8],90%
same,fold change (FC),[9],-3.2
same,fold change (FC),[10],-1.77
same,fold change (FC),[11],-0.8
same,Activity,MV4-11 [12],Active
same,Activity,[13],Active
same,Activity,[14],Active
same,fold change (FC),[15],-4.05
same,solubility kinetic,[16],14.8 µM
same,Papp at 1 h,[17],1.2 ×10⁻⁶ cm/s
same,fold change (FC),[18],-1.17
same,Activity,[19],> 95%
same,fold change (FC),[20],-1.09
same,fold change (FC),[21],1.94
same,fold change (FC),[22],-1.03
same,Activity,[23],Active
same,Activity,[24],Active
same,fold change (FC),[25],-1.74
same,fold change (FC),[26],-0.64
same,Activity,[27],0.395 fRLU/hr
same,Activity,MV4-11 [28],Active
same,fold change (FC),[29],-1.14
same,AUC(0-t) at 24 h,[30],181 ng·h/mL
same,Cmax,[31],70 ng/mL
same,fold change (FC),[32],-1.64
same,Activity,[33],Active
same,Activity,[34],Active
same,pIC50,HD-MB03,9.42
same,Activity,[35],90%
same,fold change (FC),[36],-0.94
same,Activity,HEK293,Non-toxic
same,pIC50,MV4-11 [37],10.40
same,fold change (FC),[38],-0.92
same,half-life,[39],822 min
same,Activity,[40],> 95%
same,Activity,[41],Active
same,fold change (FC),[42],-3.75
same,DC50,[43],0.25 nM
same,fold change (FC),[44],-1.13
Cc1sc2c(c1C)C(c1ccc(Cl)cc1)=N[C@@H](CC(=O)NCCCCCNC(=O)COc1ccc(C3CCC(=O)NC3=O)cc1)c1nnc(C)n1-2 (stereo partly drawn),Emax,[1],75.7%
same,solubility kinetic,[16],24.4 µM
same,half-life,[45],2.4 min
same,Activity,HEK293,Non-toxic
same,half-life,[46],25.8 min
same,AUC,[47],298000
same,DC50,[43],25 nM
Cc1sc2c(c1C)C(c1ccc(Cl)cc1)=N[C@@H](CC(=O)N1CCC(CN3CCN(c4ccc5c(c4)C(=O)N(C4CCC(=O)NC4=O)C5=O)CC3)CC1)c1nnc(C)n1-2 (stereo partly drawn),Emax,[1],95.5%
same,fold change (FC),[2],-1.17
same,Activity,[3],90%
same,Activity,[4],Active
same,fold change (FC),[5],-1.29
same,Activity,[6],> 90%
same,fold change (FC),[7],-1
same,Activity,[8],90%
same,fold change (FC),[9],-3.3
same,fold change (FC),[10],-0.06
same,fold change (FC),[11],-0.79
same,Activity,[13],Active
same,Activity,[14],Active
same,fold change (FC),[15],-4.09
same,solubility kinetic,[16],10.5 µM
same,Papp at 1 h,[17],0.79 ×10⁻⁶ cm/s
same,fold change (FC),[18],-1.24
same,Activity,[19],> 95%
same,fold change (FC),[20],-1.1
same,fold change (FC),[21],1.91
same,fold change (FC),[22],-0.9
same,Activity,[23],Active
same,Activity,[24],Active
same,fold change (FC),[25],-1.64
same,fold change (FC),[26],-1.26
same,Activity,[27],0.204 fRLU/hr
same,fold change (FC),[29],-1.07
same,AUC(0-t) at 24 h,[30],3320 ng·h/mL
same,Cmax,[31],1160 ng/mL
same,half-life,[45],9.6 min
same,fold change (FC),[32],-1.73
same,Activity,[33],Active
same,Activity,[34],Active
same,pIC50,HD-MB03,8.03
same,Activity,[35],90%
same,fold change (FC),[36],-0.95
same,Activity,HEK293,Non-toxic
same,pIC50,MV4-11 [37],9.09
same,fold change (FC),[38],-0.88
same,half-life,[39],1070 min
same,Activity,[40],> 95%
same,Activity,[41],Active
same,fold change (FC),[42],-4.11
same,DC50,[43],1.08 nM
same,fold change (FC),[44],-1.1
